Results as given in US7276494B2, “Photosensitisers” (Photopharmica Limited, priority 2000, dated 2007).

Tests used:
[1] = system: RIF-1 (murine fibrosarcoma) cells; test: Phototoxicity towards cells in culture (photocytotoxic activity in killing RIF-1 cells); type: cell-based; conditions: concentration causing 50% cell death in two hours of illumination
Source text: [Phot]=Zinc Phthalocyanine; n=4; LD50 is the concentration of drug needed to cause 50% cell death in two hours of illumination

[2] = system: LSBD1 tumour; test: PDT-induced LSBD1 tumour growth delay in BDIX rats; type: in vivo; conditions: 400 J
Method: Data are shown in two animals models, the rat and the mouse. […] Growth delay measures the additional time taken for a treated tumour to grow to a given size, compared with an untreated tumour. Zero growth delay signifies no effect and growth delays of 5 days or longer imply substantial PDT activity.
(1) PDT-Induced LSBD1 Tumour Growth Delay in BDIX Rats
Tumour growth delay is calculated as the number of days for treated tumour to reach a mean diameter of 15 mm minus the number of days for a control tumour to reach a mean diameter of 15 mm. Data for various compounds are shown in Table 2, which also indicates the times (drug-light interval) at which effects occurred.

[3] = system: red blood cells; conditions: J. Photochem. Photobiol B: Biology., 45 (1998) 28-35; cited from earlier work
[4] = system: RIF-1 tumour cells; test: In vitro photodynamic activity, RIF-1 tumour cells, cell kill by MTT assay after 665 nm laser radiation; type: cell-based, murine; conditions: for Light: LD50 (average) / Dark: cell kill: RIF-1 tumour cells, MTT assay; for Light: LD50 (average): 665 nm laser radiation for a fixed time; for Dark: cell kill: no light
Method: In vitro photodynamic activity for zinc phthalocyanine-2-(N-2-carboxyethyl)sulphonamide compared with Zinc phthalocyanine tetrasulphonic acid. The sensitiser was tested by incubation with RIF-1 tumour cells at various dose rates, and measuring the cell kill by MTT assay after exposure to 665 nm laser radiation for a fixed time. The results were compared with zinc phthalocyanine tetrasulphonic acid as a control, and were expressed as the LD50 value for the sensitisers.

[5] = drug-light interval 24 h, 5 mg/kg, 680 nm
[6] = drug-light interval 48 h, 5 mg/kg, 680 nm
[7] = drug-light interval 4 h, 10 mg/kg, 680 nm phthalocyanines / 630 nm PHP
[8] = drug-light interval 24 h, 10 mg/kg, 680 nm phthalocyanines / 630 nm PHP
[9] = drug-light interval 48 h, 10 mg/kg, 680 nm phthalocyanines / 630 nm PHP

What does the source list for “Tetrasulphonylaminoglycine zinc (II) phthalocyanine [TSZnPc-glycine]”?
2h LD50 (mean ± SD, n 3) [1]: 142 ± 37 µM; Tumour growth delay ([2]; drug-light interval 4 h, 5 mg/kg, 680 nm): 8.5 ± 3.5 days; Tumour growth delay [2, 5]: 4.7 ± 0.75 days; Tumour growth delay [2, 6]: 4.5 days; ability to effect haemolysis of red blood cells [3]: relatively poor

For “tetrasulphonylamino butyric acid zinc (II) phthalocyanine [TSZnPc-aminobutyric acid]”, which “2h LD50 (mean ± SD, n 3)” value [1] is on record?
Its value is 90 ± 30 µM.

And the Tumour growth delay [2, 7]?
The Tumour growth delay was 4.3 ± 1.44 days.

What about the Tumour growth delay [2, 8] of the same substance?
Its Tumour growth delay is 7.83 ± 3.33 days.

And the Tumour growth delay [2, 9]?
Its Tumour growth delay is 1.67 ± 1.53 days.

With “tetrasulphonylamino caproic acid zinc (II) phthalocyanine [TSZnPc-aminocaproic acid]” as the substance, how does the “2h LD50 (mean ± SD, n 3)” value [1] read?
The value was 104 ± 14 µM.

For “tetrasulphonylamino valeric acid zinc (II) phthalocyanine [TSZnPc-aminovaleric acid]”, which “2h LD50 (mean ± SD, n 3)” value [1] is on record?
Its value is 125 ± 13 µM.

For “tetrasulphonylamino β-alanine zinc (II) phthalocyanine [TSZnPc-β-alanine]”, which “2h LD50 (mean ± SD, n 3)” value [1] is on record?
The value was 109 ± 31 µM.

And the Tumour growth delay ([2]; drug-light interval 2 h, 10 mg/kg, 680 nm)?
Its Tumour growth delay is 6 ± 0.62 days.

And the Tumour growth delay [2, 7]?
The Tumour growth delay was 10 ± 2.62 days.

What about the Tumour growth delay ([2]; drug-light interval 6 h, 10 mg/kg, 680 nm) of the same substance?
Its Tumour growth delay is 5.25 ± 1.59 days.

What about the Tumour growth delay [2, 5] of the same substance?
The Tumour growth delay was 2 days.

What about the Tumour growth delay [2, 6] of the same substance?
Its Tumour growth delay is 2 days.

What does the source list for “tetrasulphonylamino-α-alanine zinc (II) phthalocyanine [TSZnPc-α-alanine]”?
2h LD50 (mean ± SD, n 3) [1]: 109 ± 39 µM; Tumour growth delay [2, 7]: 4.33 ± 0.83 days; Tumour growth delay [2, 8]: 6.67 ± 1.09 days; Tumour growth delay [2, 9]: 3.33 ± 0.73 days

For “zinc phthalocyanine tetrasulphonic acid [reference compound]”, which “Light: LD50 (average)” value [4] is on record?
The value was > 10 µM.

What about the “Dark: cell kill” value [4] of the same substance?
The value was “no cell kill detectable”.

For “zinc phthalocyanine-2-(N-2-carboxyethyl)sulphonamide”, which “Light: LD50 (average)” value [4] is on record?
Its value is 0.2 µM.

What about the “Dark: cell kill” value [4] of the same substance?
The value was “no cell kill detectable”.

What about the “times more PDT active than the tetrasulphonic acid (in vitro)” value ([4]; ratio of light LD50 values, RIF-1 cells) of the same substance?
Its value is “at least 50 times”.
